Source: patent US20160206631A1, “OXYSTEROLS THAT ACTIVATE LIVER X RECEPTOR SIGNALING AND INHIBIT HEDGEHOG SIGNALING” (THE REGENTS OF THE UNIVERSITY OF CALIFORNIA, priority 2010, published 2016)

What was measured:
Hedgehog pathway = settings: cited from earlier work
LXR [1] = assay: LXR target gene expression by Q-RT-PCR in Saos-2 osteosarcoma cells; assay type: cell-based, human; settings: for expression of LXR target genes ABCA1 and SREBP1c: Saos-2 cells (FIG. 2, 72 hours for TO)
Source text: Data from a representative experiment are reported as the Data from a representative experiment are reported as the mean of triplicate determinations±SD relative to the expression level of LXRα (p<0.001 for control vs. both concentrations of TO for ABCA1 and SREBP1c mRNA).
Culturing the cells in varying serum (FBS) concentrations from 1% to 10% had no effect on LXRs or LXR target gene expression levels at baseline.

[2] = test system: NCI-H929 multiple myeloma cancer stem cells; assay: Percentage of cancer stem cells (CD138 negative, ALDH positive) in NCI-H929 cultures by flow cytometry; assay type: cell-based, human; settings: 1 μM, 96 hours (FIGS. 7, 8)
Description: NCI-H929 multiple myeloma cells were treated for 96 hours with control vehicle or 1 μM of each compound as shown. Next, percentage of CD138negative cells in the same number of starting cells from each group was determined by flow cytometry.
NCI-H929 multiple myeloma cells were treated for 96 hours with control vehicle or 1 μM of each compound as shown. Next, percentage of ALDH+ cells in the same number of starting cells from each group was determined by flow cytometry.

[3] = test system: C3H10T1/2 embryonic fibroblasts; assay: CAPAN-1 conditioned-medium-induced alkaline phosphatase activity in C3H10T1/2 cells; assay type: cell-based; settings: C3H10T1/2, 3 days; TO 2 μM, Oxy16 5 μM, Cyc 4 μM (FIG. 11)
Description: Next, cells were treated with DMEM containing 5% FBS or CAPAN-1 CM in the presence or absence of TO, Oxy16, or Cyc. After 3 days, alkaline phosphatase activity assay using whole cell lysates was performed.
(§1) In order to assess the functional activity of Hh proteins produced by CAPAN-1 cells, we examined the ability of CM to induce Hh target gene expression in C3H10T1/2 embryonic fibroblasts.

[4] = test system: Saos-2 human osteosarcoma cells; assay: Anchorage-independent clonogenic growth of Saos-2 cells; assay type: cell-based; settings: for clonogenic growth: Saos-2, 1 μM, 72 hours, colonies after 10 days (FIG. 4)
Description: (§2) Next, cells were harvested and examined for clonogenic growth in non-adherent plates after 10 days of culturing. Data from a representative of two separate experiments are reported as the relative number of colonies formed by cells treated with LXR ligands relative to cells treated with control vehicle (% of control).
(§3) We examined whether LXR activation inhibits the clonogenic growth of human osteosarcoma cells using an anchorage-independent cell growth assay. Saos-2 and U2OS cells were seeded in standard tissue culture plates and treated for 72 hours with control vehicle or 1 μM of TO, 22R, or Oxy16. Following treatments with LXR ligands, the drugs were removed and the cells harvested and plated in methylcellulose media in non-adherent plates (Costar) and the cell colonies formed after 10 days were counted.

[5] = test system: human NCI-H929 multiple myeloma cell line; assay: Clonogenic growth of NCI-H929 multiple myeloma cells; assay type: cell-based; settings: 1 μM, 96 hours, colonies after 10 days (FIG. 6)
Description: NCI-11929 multiple myeloma cells were treated for 96 hours with control vehicle or 1 μM of each compound as shown. Next, drugs were removed and cells were plated in methylcellulose. Clonogenic growth of colonies determined after 10 days. Data are reported as percentage of colony number normalized to control group.
In order to examine the effect of LXR activation on the clonogenic growth of multiple myeloma cells, the human NCI-H929 multiple myeloma cell line was used.

LXR [6] = assay: ABCA1 (LXR target gene) expression by Q-RT-PCR in M2-10B4 bone marrow stromal cells
Description: This was measured by the ability of these molecules to induce the expression of LXR-target genes, including ABCA1, in M2-10B4 bone marrow stromal cells (MSC) after 48 hours of treatment (Table 1).

REH human ALL cells = assay: Clonogenic growth of REH ALL cells; assay type: cell-based
Description: (§4) Following treatment cells were harvested by washing cells twice with phosphate buffered saline (PBS) followed by enzymatically detaching with trypsin/EDTA. Cells were collected then washed twice with PBS. Cells were counted then resuspended in 500 uL of media. The volume of cells required for 2,000 cells from the control group was removed from each group then mixed with methylcellulose (1.2%) containing 30% fetal bovine serum, 1% bovine serum albumin, 10^-4 M 2-mercaptoethanol, and 2 mM L-glutamine. Cells were plated in low-attachment 6 well plates (1 ml/well), each group being plated in triplicate. Following 10 days of incubation, tumor cell colonies consisting of >40 cells were counted using an inverted microscope. Results are presented as the percentage of colonies from each treatment group compared to the control group (Table 2).
A similar experiment to that shown above for pancreatic cancer cells was performed using the human ALL cells, REH (Table 3).

[7] = test system: U2OS human osteosarcoma cells; assay: Anchorage-independent clonogenic growth of U2OS cells; assay type: cell-based; settings: 1 μM, 72 hours, colonies after 10 days (FIG. 4)
Description: as §2, §3

Hedgehog signaling = assay: CAPAN-1 conditioned-medium-induced Hh target gene expression (Ptch1, HHIP, Gli1) in C3H10T1/2 cells; assay type: cell-based; settings: C3H10T1/2, 48 hours; TO 2 μM, Oxy16 5 μM, Cyc 4 μM (FIG. 10)
Description: Next, cells were treated with DMEM containing 5% […] or CAPAN-1 CM in the presence or absence of TO, Oxy16, or Cyc. After 48 hours, RNA was extracted and analyzed by Q-RT-PCR for the expression of Hh target genes Ptch1, HHIP, and Gli1 and normalized to GAPDH expression.
As noted above, Hh signaling appears to play an important role in the initiation and progression of pancreatic cancer (26), and the inhibition of HE signaling using small molecule antagonists inhibits pancreatic cancer cells from growing in vitro and in vivo (50). […] Subsequently, Hh signaling in stromal cells provides a permissive milieu for tumor cells to grow. […] In this Example, we examine this possibility using an in vitro model system in which Hh signaling is induced in C3H10T1/2 embryonic fibroblasts by conditioned-medium (CM) from CAPAN-1 human pancreatic cancer cells.
as §1

[8] = test system: L3.6p1 human pancreatic cancer cells; assay: Clonogenic growth of L3.6p1 pancreatic cancer cells in methylcellulose; assay type: cell-based; settings: 72 hours treatment, colonies counted after 10 days
Description: as §4

[9] = test system: human primary multiple myeloma cells derived from patients; assay: Clonogenic growth of primary multiple myeloma cells from patients in methylcellulose; assay type: cell-based; settings: 1 μM, 96 hours, CD34+ and CD138+ depleted bone marrow mononuclear cells
LXR [10] = assay: LXR target gene expression in C3H10T1/2 cells; settings: C3H10T1/2, 48 hours
Source text: Next we examined whether LXR activation by LXR agonists inhibits CAPAN-1 CM-induced Hh target gene expression in fibroblastic cells.
As noted above, specific oxysterols are thought to be physiological ligands of LXRs that are classified as partial agonists based on their differential effects on the interaction of LXRs with co-activators and co-repressors compared to those induced by the full LXR agonist TO.

[11] = test system: CAPAN-1 human pancreatic cancer cells; assay: Ihh and Shh mRNA expression in CAPAN-1 cells; assay type: cell-based; settings: cyclopamine 4 μM, TO 2-5 μM, data not shown
Description: Expression of Shh and Ihh mRNA in human cultures of pancreatic cancer cells, CAPAN-1, L3.6p1, and E3LZ10.7 were analyzed by Q-RT-PCR and normalized to GAPDH expression. Cells were cultured in DMEM containing 10% FBS and RNA was extracted 3 days after seeding. Data from a representative experiment are reported as the mean of triplicate determinations±SD (p<0.001 for CAPAN-1 vs. other two cell types for Shh and 11 h mRNA expression).
Culturing CAPAN-1 cells in 1% vs. 10% FBS had no effects on their level of mRNA expression for 11th and Shh (data not shown), and treatment of CAPAN-1 cells with the Hh pathway inhibitor cyclopamine (4 μM) or the LXR agonist TO (2-5 μM) had no effect on the expression of Ihh or Shh mRNA in these cells (data not shown).

[12] = test system: Hedgehog signaling pathway; assay: Ptch1 mRNA expression (Hh target gene) by Q-RT-PCR in Saos-2 cells; assay type: cell-based, human; settings: Saos-2, 2% FBS, 72 hours; 2 or 4 τM TO, 4 μM cyclopamine (FIG. 5)
Description: Saos-2 cells were cultured in medium containing 2% FBS and were treated at confluence with 4 μM Cyc, 2 or 4 τM TO, alone or in combination for 72 hours. Expression of Ptch1 and Gli1 (data not shown) mRNA was measured by Q-RT-PCR and normalized to GAPDH.

[13] = test system: human pancreatic cancer cells; assay: Clonogenic growth of human pancreatic cancer cells in vitro; assay type: cell-based
LXR [14] = assay: LXR target gene expression in human pancreatic cancer cells

| Compound | net effect of the LXR agonist on the Hedgehog pathway (Hedgehog pathway) | expression of LXR target genes ABCA1 and SREBP1c (LXR [1]) | percentage of cancer stem cells (CD138 negative and ALDH positive cells) [2] | CAPAN-1 CM-induced ALP activity [3] | clonogenic growth [4] | clonogenic growth [5] | Normalized Colony # (% of control) (REH human ALL cells; 0.1 μM) | Raw Colony # (REH human ALL cells; 0.1 μM) | Normalized Colony # (% of control) (REH human ALL cells; 0.5 μM) | Raw Colony # (REH human ALL cells; 0.5 μM) | clonogenic growth [7] | CAPAN-1 CM-induced expression of Hh target genes Ptch1, Gli1, HHIP (Hedgehog signaling) | Normalized Colony # (% of control) ([8]; 5 μM) | Raw Colony # ([8]; 5 μM) | Normalized Colony # (% of control) ([8]; 10 μM) | Raw Colony # ([8]; 10 μM) | colony formation (% of control) ([9]; Specimen # 1) | colony formation (% of control) ([9]; Specimen # 2) | expression of Ihh or Shh mRNA [11] | Ptch1 mRNA expression [12] | further results |
| --- | --- | --- | --- | --- | --- | --- | --- | --- | --- | --- | --- | --- | --- | --- | --- | --- | --- | --- | --- | --- | --- |
| C[C@H](CCCC(C)(C)O)[C@H]1CC[C@H]2[C@@H]3CC=C4C[C@@H](O)CC[C@]4(C)[C@H]3CC[C@]12C [25-hydroxycholesterol] | leave the Hedgehog pathway active |  |  |  |  |  |  |  |  |  |  |  |  |  |  |  |  |  |  |  |  |
| CC(C)CC[C@@H](O)[C@](C)(O)[C@H]1CC[C@H]2[C@@H]3CC=C4C[C@@H](O)CC[C@]4(C)[C@H]3CC[C@]12C [Oxy16, (2R,3R)-2-((3S,8S,9S,10R,13S,14S,17S)-3-Hydroxy-10,13-dimethyl-2,3,4,7,8,9,10,11, 12,13,14,15,16,17-tetradecahydro-1H-cyclopenta[a]phenanthren-17-yl)-6-methyl-heptane-2,3-diol] |  | significant expression | significantly reduced | inhibited | significant inhibition | inhibited clonogenic growth | 71 % of control | 65 | 15 % of control | 14 | significant inhibition | inhibited | 22 % of control | 53 | 10 % of control | 24 | 13 % of control | 20 % of control |  |  | induction of LXR target genes ABCA1 and ABCG1 (LXR [1]; osteosarcoma cells, preliminary studies (FIG. 3)): strong induction; potency in blocking clonogenic growth of osteosarcoma cells versus naturally occurring counterparts ([4]; osteosarcoma cells, compared with 22R and 20S): more potent than its naturally occurring counterparts; fold induction at 2 µM (LXR [6]; M210B4, 48 h, read-out: ABCA1 gene expression, Fold Induction ± SD): 2.1 ± 0.5; LXR signaling activation (LXR [6]; bone marrow stromal cells): Activate LXR Signaling; induction of ABCA1 and ABCG1 (LXR [10]): induction |
| C=C(C)CCC[C@](C)(O)C1CCC2C3CC=C4C[C@@H](O)CC[C@]4(C)C3CC[C@@]21C (stereo partly shown) [Oxy 13] | leave the Hedgehog pathway active |  |  |  |  |  |  |  |  |  |  |  |  |  |  |  |  |  |  |  |  |
| O=S(=O)(c1ccccc1)N(CC(F)(F)F)c1ccc(C(O)(C(F)(F)F)C(F)(F)F)cc1 [TO, TO901317, reference compound] |  | robust expression | significantly reduced | significantly inhibited | significant inhibition | inhibited clonogenic growth | 48 % of control | 44 | 37 % of control | 34 | significant inhibition | significantly inhibited | 41 % of control | 100 | 15 % of control | 37 | 27 % of control | 18 % of control | no effect | significant inhibition | clonogenic growth [13]: significantly inhibit; expression of LXR target genes (LXR [14]): induce the expression of LXR target genes |
| CC1=C2C[C@H]3[C@@H](CC=C4C[C@@H](O)CC[C@@]43C)[C@@H]2CC[C@]12O[C@@H]1C[C@H](C)CN[C@H]1[C@H]2C [cyclopamine] |  |  |  | inhibited |  |  |  |  |  |  |  | completely inhibited |  |  |  |  |  |  | no effect | significant inhibition |  |
